In PubChem BioAssay AID1845201 (Molecular Pharmacology Branch, DTP, NCI, 2023):

Test system: COR L88 complex tumor spheroid viability
Assay: Anticancer human tumor COR L88 cell line growth inhibition;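 also: compound exposure lasted 7 days before viability readout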;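 as to viability, T/C: percent of DMSO vehicle-treated spheroids = 100%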
Conditions: for IC50: curve of first compound; for viability, T/C: stronger effect = lower value; active = viability on the fitted dose curve at most 10% of control; inactive = the rest
In short: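 Complex spheroids of malignant cells with endothelial cells and mesenchymal stem cells; agents alone or combined, from near clinical Cmax (or 10 microM if unknown) down in half-log steps, 0.25% DMSO final.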

[1] = second compound 0.003 µM, first compound 0.0316 µM
[2] = second compound 0.003 µM, first compound 0.1 µM
[3] = second compound 0.003 µM, first compound 0.316 µM
[4] = second compound 0.003 µM, first compound 1 µM
[5] = second compound 0.003 µM, first compound 3.16 µM
[6] = second compound 0.003 µM, first compound 10 µM

COc1cc(C)[nH]c(=O)c1CN1CCc2c(Cl)cc(C(OC)C3COC3)c(Cl)c2C1=O (stereo not given) + COc1cc2c(cc1O)CCNC21CSC2c3c(OC(C)=O)c(C)c4c(c3C(COC1=O)N1C(O)C3Cc5cc(C)c(OC)c(O)c5C(C21)N3C)OCO4
inactive: viability, T/C (second compound 30 pM, first compound 0.0316 µM) 109% | viability, T/C (second compound 30 pM, first compound 0.1 µM) 98.7% | viability, T/C (second compound 30 pM, first compound 0.316 µM) 96.8% | viability, T/C (second compound 30 pM, first compound 1 µM) 91.4% | viability, T/C (second compound 30 pM, first compound 3.16 µM) 86.7% | viability, T/C (second compound 30 pM, first compound 10 µM) 83.2% | viability, T/C (second compound 94.9 pM, first compound 0.0316 µM) 99.4% | viability, T/C (second compound 94.9 pM, first compound 0.1 µM) 84.2% | viability, T/C (second compound 94.9 pM, first compound 0.316 µM) 82.2% | viability, T/C (second compound 94.9 pM, first compound 1 µM) 86.2% | viability, T/C (second compound 94.9 pM, first compound 3.16 µM) 80.9% | viability, T/C (second compound 94.9 pM, first compound 10 µM) 80.9% | viability, T/C (second compound 0.0003 µM, first compound 0.0316 µM) 49.3% | viability, T/C (second compound 0.0003 µM, first compound 0.1 µM) 41.2% | viability, T/C (second compound 0.0003 µM, first compound 0.316 µM) 38% | viability, T/C (second compound 0.0003 µM, first compound 1 µM) 36.3% | viability, T/C (second compound 0.0003 µM, first compound 3.16 µM) 34.2% | viability, T/C (second compound 0.0003 µM, first compound 10 µM) 31.3% | viability, T/C (second compound 0.000949 µM, first compound 0.0316 µM) 39.6% | viability, T/C (second compound 0.000949 µM, first compound 0.1 µM) 47.4% | viability, T/C (second compound 0.000949 µM, first compound 0.316 µM) 44.6% | viability, T/C (second compound 0.000949 µM, first compound 1 µM) 37.7% | viability, T/C (second compound 0.000949 µM, first compound 3.16 µM) 34.1% | viability, T/C (second compound 0.000949 µM, first compound 10 µM) 18.3%
> 10000 nM: IC50 (second compound 30 pM) | IC50 (second compound 94.9 pM)
active: viability, T/C [1] 1.16% | viability, T/C [2] 1.08% | viability, T/C [3] 0.9% | viability, T/C [4] 1.24% | viability, T/C [5] 1.05% | viability, T/C [6] 1.71%
< 31.6 nM: IC50 (second compound 0.0003 µM) | IC50 (second compound 0.000949 µM) | IC50 (second compound 0.003 µM)

COc1cc(C)[nH]c(=O)c1CN1CCc2c(Cl)cc(C(OC)C3COC3)c(Cl)c2C1=O (stereo not given) + CC[C@@]1(O)C(=O)OCc2c1cc1n(c2=O)Cc2cc3c(CN(C)C)c(O)ccc3nc2-1
> 10000 nM: IC50 (second compound 0.003 µM) | IC50 (second compound 0.00949 µM)
< 31.6 nM: IC50 (second compound 0.03 µM) | IC50 (second compound 0.0949 µM) | IC50 (second compound 0.3 µM)
inactive: viability, T/C [1] 87% | viability, T/C [2] 90.9% | viability, T/C [3] 83.5% | viability, T/C [4] 85.4% | viability, T/C [5] 86.5% | viability, T/C [6] 75% | viability, T/C (second compound 0.00949 µM, first compound 0.0316 µM) 65.7% | viability, T/C (second compound 0.00949 µM, first compound 0.1 µM) 53.2% | viability, T/C (second compound 0.00949 µM, first compound 0.316 µM) 53.3% | viability, T/C (second compound 0.00949 µM, first compound 1 µM) 50.9% | viability, T/C (second compound 0.00949 µM, first compound 3.16 µM) 49% | viability, T/C (second compound 0.00949 µM, first compound 10 µM) 52.7% | viability, T/C (second compound 0.03 µM, first compound 0.0316 µM) 43.3% | viability, T/C (second compound 0.03 µM, first compound 0.1 µM) 44.3% | viability, T/C (second compound 0.03 µM, first compound 0.316 µM) 38.7% | viability, T/C (second compound 0.03 µM, first compound 1 µM) 39.2% | viability, T/C (second compound 0.03 µM, first compound 3.16 µM) 35.5% | viability, T/C (second compound 0.03 µM, first compound 10 µM) 17.1% | viability, T/C (second compound 0.0949 µM, first compound 0.0316 µM) 46.2% | viability, T/C (second compound 0.0949 µM, first compound 0.1 µM) 43.8% | viability, T/C (second compound 0.0949 µM, first compound 0.316 µM) 41.2% | viability, T/C (second compound 0.0949 µM, first compound 1 µM) 45.5% | viability, T/C (second compound 0.0949 µM, first compound 3.16 µM) 38.2% | viability, T/C (second compound 0.0949 µM, first compound 10 µM) 19.1% | viability, T/C (second compound 0.3 µM, first compound 0.0316 µM) 47.6% | viability, T/C (second compound 0.3 µM, first compound 0.1 µM) 46.1% | viability, T/C (second compound 0.3 µM, first compound 0.316 µM) 41.2% | viability, T/C (second compound 0.3 µM, first compound 1 µM) 42.8% | viability, T/C (second compound 0.3 µM, first compound 3.16 µM) 41.2% | viability, T/C (second compound 0.3 µM, first compound 10 µM) 37.5%
